Experimental data: US20250026743A1, “HETEROARYL-LINKED ANALOGS AS MGLU5 NEGATIVE ALLOSTERIC MODULATORS AND METHODS OF MAKING AND USING THE SAME” (Vanderbilt University, priority 2021, published 2025)
Like-named read-outs stand apart in the source and are kept apart here.

Biological target: T1, hmGlu5 (Homo sapiens, UniProt P41594)
T1 construct: expressed in transfected cells; host or cells: HEK 293A
Experiment: mGlu5 Ca2+ flux assay in HEK 293A cells (negative allosteric modulation of glutamate EC80 response)
Assay type: cell-based
Details: for remaining activity at 30 µM: HEK293-A, read-out: hmGlu5 NAM Emin (%); for IC50: HEK 293A cells, Ca2+ flux, glutamate EC80, >10,000 = decrease without plateau, read-out: hmGlu5 NAM IC50
Experimental: HEK 293A cells stably expressing either rat or human mGlu5 were plated in black-walled, clear-bottomed, poly-D-lysine coated 384-well plates in 20 μL of assay medium (DMEM containing 10% dialyzed FBS, 20 mM HEPES, 100 units/mL penicillin/streptomycin plus 250 ng/mL Fungizone, and 1 mM sodium pyruvate) at a density of 20K cells/well. The cells were grown overnight at 37° C. in the presence of 5% CO2. The next day, medium was removed and the cells incubated with 20 μL of 2.3 μM Fluo-4, AM prepared as a 2.3 mM stock in DMSO and mixed in a 1:1 ratio with 10% (w/v) pluronic acid F-127 and diluted in assay buffer (Hank's balanced salt solution, 20 mM HEPES, and 2.5 mM probenecid) for 45 minutes at 37° C. Dye was removed, 20 μL of assay buffer was added, and the plate was incubated for 5 minutes at room temperature.
Ca^2+ flux was measured using the Functional Drug Screening System (FDSS7000, Hamamatsu, Japan). After establishment of a fluorescence baseline for about 3 seconds, the compounds of the present invention were added to the cells, and the response in cells was measured. 2.3 minutes later an EC20 concentration of the mGlu5 receptor agonist glutamate was added to the cells, and the response of the cells was measured for 1.9 minutes; an EC80 concentration of agonist was added and readings taken for an additional 1.7 minutes. All test compounds were dissolved and diluted to a concentration of 10 mM in 100% DMSO. Compounds were then serially diluted 1:3 in DMSO into 10 point concentration response curves, transferred to daughter plates, and further diluted into assay buffer to a 2× stock. Calcium fluorescence measures were recorded as fold over basal fluorescence; raw data was then normalized to the maximal response to glutamate. Antagonism of the agonist response of the mGlu5 receptor in the present invention was observed as a decrease in response to nearly maximal concentrations of glutamate in the presence of compound compared to the response to glutamate in the absence of compound.
The raw data file containing all time points was used as the data source in the analysis template. This was saved by the FDSS as a tab-delimited text file. Data were normalized using a static ratio function (F/F0) for each measurement of the total 360 values per well divided by each well's initial value. Data were then reduced to peak amplitudes (Max−Initial Min) using a time range that starts approximately 3 seconds prior to the glutamate EC20/EC80 addition and continues for approximately 90-120 seconds. This is sufficient time to capture the peak amplitude of the cellular calcium response. Individual amplitudes were expressed as % EMax by multiplying each amplitude by 100 and then dividing the product by the mean of the amplitudes derived from the glutamate ECMax-treated wells. IC50 values for test compounds were generated by fitting the normalized values versus the log of the test compound concentration (in mol/L) using a 4 parameter logistic equation where none of the parameters were fixed. Each of the three values collected at each concentration of test compound were weighted evenly.
For NAMs with a CRC that plateaus above 10% Glu Max, the IC50 values are reported, the compound is designated a “partial NAM” and the % Glu Max is reported. […] Compounds without measurable activity are designated as “>30,000 nM” since the top concentration of compound tested in the assay is 30 μM. […]

T1 sequence (P41594 21-1212): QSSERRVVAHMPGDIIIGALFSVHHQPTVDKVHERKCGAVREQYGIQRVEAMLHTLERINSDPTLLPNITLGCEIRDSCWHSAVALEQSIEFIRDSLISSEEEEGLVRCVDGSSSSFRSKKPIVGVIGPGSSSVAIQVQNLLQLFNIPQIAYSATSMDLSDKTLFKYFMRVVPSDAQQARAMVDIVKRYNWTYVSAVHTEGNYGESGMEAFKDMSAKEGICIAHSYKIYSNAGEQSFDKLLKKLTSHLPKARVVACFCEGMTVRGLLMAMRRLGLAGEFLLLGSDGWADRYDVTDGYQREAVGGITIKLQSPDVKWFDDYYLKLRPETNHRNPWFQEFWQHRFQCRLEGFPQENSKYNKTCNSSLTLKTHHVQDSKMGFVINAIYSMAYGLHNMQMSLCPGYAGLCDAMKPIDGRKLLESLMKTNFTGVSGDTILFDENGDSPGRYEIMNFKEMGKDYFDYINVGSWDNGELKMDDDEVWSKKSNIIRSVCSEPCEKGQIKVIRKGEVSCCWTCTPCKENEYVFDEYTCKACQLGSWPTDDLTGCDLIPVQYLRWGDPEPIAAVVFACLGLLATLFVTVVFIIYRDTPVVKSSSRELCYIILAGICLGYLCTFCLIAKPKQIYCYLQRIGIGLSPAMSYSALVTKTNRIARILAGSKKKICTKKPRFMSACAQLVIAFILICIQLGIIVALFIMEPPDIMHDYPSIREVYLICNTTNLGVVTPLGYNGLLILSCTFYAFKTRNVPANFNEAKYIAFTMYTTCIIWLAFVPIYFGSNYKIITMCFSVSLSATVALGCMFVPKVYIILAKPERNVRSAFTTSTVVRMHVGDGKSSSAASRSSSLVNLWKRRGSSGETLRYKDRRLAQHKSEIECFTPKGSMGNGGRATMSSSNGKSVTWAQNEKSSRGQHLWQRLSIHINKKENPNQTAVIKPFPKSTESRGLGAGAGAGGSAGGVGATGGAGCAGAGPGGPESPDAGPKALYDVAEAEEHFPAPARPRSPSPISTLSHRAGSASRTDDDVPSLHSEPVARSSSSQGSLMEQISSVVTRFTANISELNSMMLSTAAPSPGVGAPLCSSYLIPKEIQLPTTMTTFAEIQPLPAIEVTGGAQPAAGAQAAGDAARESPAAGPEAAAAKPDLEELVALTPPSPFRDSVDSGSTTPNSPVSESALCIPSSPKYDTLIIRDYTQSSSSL

Structure (SMILES) | remaining activity at 30 µM (% Glu max at 30 μM) [%] | IC50 [µM] | remaining activity at 30 µM [%]
COc1c(-c2cncc(F)c2)cc(-c2n[nH]c(-c3ccc(F)cc3)n2)nc1C [Compound 102, 5-fluoro-6′-(5-(4-fluorophenyl)-1H-1,2,4-triazol-3-yl)-3′-methoxy-2′-methyl-3,4′-bipyridine] | 2 | 0.663 | –
Cc1ccncc1-c1cc(-c2nc(-c3ccc(F)cn3)no2)nc(C)c1F [Compound 8, 5-(5′-fluoro-4,6′-dimethyl-[3,4′-bipyridin]-2′-yl)-3-(5-fluoropyridin-2-yl)-1,2,4-oxadiazole] | 2 | 0.124 | –
Cc1ccn(Cc2nc(-c3cc(-c4cnccc4C)c(F)c(C)n3)no2)n1 [Compound 65, 3-(5′-fluoro-4,6′-dimethyl-[3,4′-bipyridin]-2′-yl)-5-((3-methyl-1H-pyrazol-1-yl)methyl)-1,2,4-oxadiazole] | 36 | > 10 | –
Cc1nc(-c2nc(-c3ccc(F)cn3)no2)cc(-c2cncc(F)c2)c1F [Compound 59, 5-(5,5′-difluoro-6′-methyl-[3,4′-bipyridin]-2′-yl)-3-(5-fluoropyridin-2-yl)-1,2,4-oxadiazole] | 4 | 0.051 | –
Cc1nc(-c2nnc(-c3ccc(F)cn3)o2)cc(-c2cncc(F)c2)c1F [Compound 43, 2-(5,5′-difluoro-6′-methyl-[3,4′-bipyridin]-2′-yl)-5-(5-fluoropyridin-2-yl)-1,3,4-oxadiazole] | – | 0.179 | 2
COc1c(-c2cnn(C(F)F)c2)cc(-c2noc(-c3ccc(F)cn3)n2)nc1C [Compound 12, 3-(4-(1-(difluoromethyl)-1H-pyrazol-4-yl)-5-methoxy-6-methylpyridin-2-yl)-5-(5-fluoropyridin-2-yl)-1,2,4-oxadiazole] | 2 | 1.11 | –
Cc1ccncc1-c1cc(-c2noc(-c3cc(F)ccn3)n2)ncc1F [Compound 3, 3-(5′-fluoro-4-methyl-[3,4′-bipyridin]-2′-yl)-5-(4-fluoropyridin-2-yl)-1,2,4-oxadiazole] | 2 | 0.744 | –
Cc1ccncc1-c1cc(-c2noc(-c3ccc(Cl)cn3)n2)nc(C)c1F [Compound 26, 5-(5-chloropyridin-2-yl)-3-(5′-fluoro-4,6′-dimethyl-[3,4′-bipyridin]-2′-yl)-1,2,4-oxadiazole] | 2 | 0.575 | –
Cc1ccc(-c2cc(-c3nnc(-c4ccc(F)cn4)o3)nc(C)c2F)c(C)n1 [Compound 111, 2-(5′-fluoro-2,6,6′-trimethyl-[3,4′-bipyridin]-2′-yl)-5-(5-fluoropyridin-2-yl)-1,3,4-oxadiazole] | 2 | 1.53 | –
Cc1nc(-c2nnc(-c3ccc(F)cn3)o2)cc(-c2cncc(F)c2)c1OC(C)C [Compound 45, 2-(5-fluoro-5′-isopropoxy-6′-methyl-[3,4′-bipyridin]-2′-yl)-5-(5-fluoropyridin-2-yl)-1,3,4-oxadiazole] | 2 | 0.946 | –
Cc1ccc(-c2nnc(-c3cc(-c4cncc(F)c4)c(F)c(C)n3)o2)nc1 [Compound 57, 2-(5,5′-difluoro-6′-methyl-[3,4′-bipyridin]-2′-yl)-5-(5-methylpyridin-2-yl)-1,3,4-oxadiazole] | – | 1.08 | 4
Cc1ccncc1-c1cc(-c2noc(-c3cccc(C#N)c3)n2)nc(C)c1F [Compound 24, 3-(3-(5′-fluoro-4,6′-dimethyl-[3,4′-bipyridin]-2′-yl)-1,2,4-oxadiazol-5-yl)benzonitrile] | 2 | 0.085 | –
Cc1cc(CC2CCOC2)cc(-c2noc(-c3ccc(F)cn3)n2)n1 (centres unmarked) [Compound 86, 5-(5-fluoropyridin-2-yl)-3-(6-methyl-4-((tetrahydrofuran-3-yl)methyl)pyridin-2-yl)-1,2,4-oxadiazole] | 1 | 0.766 | –
